For the assay, the target named is T1, Kv7.2 (Homo sapiens, UniProt O43526).
T1 construct: expressed in transfected cells
As to the kind of experiment: Activation of Kv7.2 (in vitro assay, concentration response curve). In kind it is cell-based. The following applies: for Emax: Kv7.2 activation max %; for EC50: activation of Kv7.2. An outline of the steps:
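Agonist activity was measured in vitro across a range of compound concentrations and plotted as a sigmoidal concentration–response curve. EC50 is the concentration giving 50% of that compound's own maximal response (Emax).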

By Emax is commonly meant the greatest response seen or fitted, relative to the assay's reference. The term EC50 denotes the concentration needed to bring the measured effect to its halfway point. A lower EC50 goes with higher potency in that assay. In turn, `O=C(NCc1ccnc(OCC(F)CF)c1)NC12CCC(F)(CC1)CC2` (centres unmarked) [Example 213, 1-[[2-(2,3-difluoropropoxy)pyridin-4-yl]methyl]-3-(4-fluoro-1-bicyclo[2.2.2]octanyl)urea] displayed an Emax of 47% and an EC50 of 340 nM.
Taken in the same sequence, the figures for `O=C(NCc1ccnc(OCC(F)CF)c1)N[C@H]1C[C@H](C(F)(F)F)C1` (some centres unmarked) [Example 214, 1-[[2-(2,3-difluoropropoxy)pyridin-4-yl]methyl]-3-[(1r,3r)-3-(trifluoromethyl)cyclobutyl]urea] were 54% and 500 nM.
In turn, `O=C(NCc1cnnc(OCC(F)(F)F)c1)N[C@H]1C[C@H](C(F)(F)F)C1` [Example 215] came in with a maximal effect (Emax) of 40% and an EC50 of 6830 nM.
The corresponding values for `O=C(NCc1ccnc(OCC(F)CF)c1)NC12CC(F)(C1)C2` (centres unmarked) [Example 216, 1-[[2-(2,3-difluoropropoxy)pyridin-4-yl]methyl]-3-(3-fluoro-1-bicyclo[1.1.1]pentanyl)urea] are 50% and 1470 nM.
The corresponding values for `O=C(NCc1ccnc(OCC(F)F)c1)NC12CC(F)(C1)C2` [Example 217, 1-[[2-(2,2-difluoroethoxy)pyridin-4-yl]methyl]-3-(3-fluoro-1-bicyclo[1.1.1]pentanyl)urea] are 43% and 310 nM.
The corresponding values for `Cc1cccc(NC(=O)NCc2ccnc(OC(F)F)c2)n1` [Example 218, 1-[[2-(difluoromethoxy)pyridin-4-yl]methyl]-3-(6-methylpyridin-2-yl)urea] are 54% and 1490 nM.
Compound `O=C(NCc1ccnc(OC(F)F)c1F)N[C@H]1C[C@H](C(F)(F)F)C1` [Example 219, 1-[[2-(difluoromethoxy)-3-fluoropyridin-4-yl]methyl]-3-[(1r,3r)-3-(trifluoromethyl)cyclobutyl]urea] registered an Emax of 48% and a concentration for a half-maximal effect (EC50) of 380 nM.
The corresponding values for `O=C(NCc1ccnc(OCC(F)CF)c1)Nc1cccc(Cl)c1` (centres unmarked) [Example 220, 1-(3-chlorophenyl)-3-[[2-(2,3-difluoropropoxy)pyridin-4-yl]methyl]urea] are 48% and 460 nM.
`CC(Oc1cc(CNC(=O)N[C@H]2C[C@H](C(F)(F)F)C2)ccn1)C(F)(F)F` (some centres unmarked) [Example 221, 1-[(1r,3r)-3-(trifluoromethyl)cyclobutyl]-3-[[2-(1,1,1-trifluoropropan-2-yloxy)pyridin-4-yl]methyl]urea] showed a maximal effect (Emax) of 78% and a concentration giving a half-maximal response (EC50) of 70 nM.
Taken in the same sequence, the figures for `O=C(NCc1ccnc(OC(F)F)c1)NC1CCC2C(C1)C2(F)F` (centres unmarked) [Example 222, 1-(7,7-difluoro-3-bicyclo[4.1.0]heptanyl)-3-[[2-(difluoromethoxy)pyridin-4-yl]methyl]urea] were 76% and 180 nM.
Taken in the same sequence, the figures for `CC(Oc1cc(CNC(=O)NC23CC(F)(C2)C3)ccn1)C(F)(F)F` (centres unmarked) [Example 223, 1-(3-fluoro-1-bicyclo[1.1.1]pentanyl)-3-[[2-(1,1,1-trifluoropropan-2-yloxy)pyridin-4-yl]methyl]urea] were 66% and 210 nM.
Take `O=C(NCc1ccnc(OC2CC(F)(F)C2)c1)NC12CC(F)(C1)C2` [Example 224, 1-[[2-(3,3-difluorocyclobutyl)oxypyridin-4-yl]methyl]-3-(3-fluoro-1-bicyclo[1.1.1]pentanyl)urea]: the Emax stood at 40% and the 50% effective concentration (EC50) turned out to be 540 nM.
Taken in the same sequence, the figures for `O=C(NCc1ccnc(OC(F)F)c1)NC1CCOC(C(F)(F)F)C1` (centres unmarked) [Example 226, 1-[[2-(difluoromethoxy)pyridin-4-yl]methyl]-3-[2-(trifluoromethyl)oxan-4-yl]urea] were 40% and 2450 nM.
The corresponding values for `O=C(NCc1ccnc(OC(F)F)c1)NCC1(F)CCCC1` [Example 227, 1-[[2-(difluoromethoxy)pyridin-4-yl]methyl]-3-[(1-fluorocyclopentyl)methyl]urea] are 49% and 410 nM.
The corresponding values for `O=C(NCc1ccnc(OC(F)F)c1)NC(C(F)(F)F)C(F)(F)F` [Example 228, 1-[[2-(difluoromethoxy)pyridin-4-yl]methyl]-3-(1,1,1,3,3,3-hexafluoropropan-2-yl)urea] are 58% and 260 nM.
The compound `O=C(NCc1ccnc(OC(F)F)c1)NCC1(C(F)(F)F)CC1` [Example 229, 1-[[2-(difluoromethoxy)pyridin-4-yl]methyl]-3-[[1-(trifluoromethyl)cyclopropyl]methyl]urea] had an Emax of 49% and a concentration giving a half-maximal response (EC50) of 600 nM.
The corresponding values for `O=C(NCc1ccnc(OC(F)F)c1)N[C@@H](C(F)F)C1CC(F)(F)C1` [Example 230, 1-[(1R)-1-(3,3-difluorocyclobutyl)-2,2-difluoroethyl]-3-[[2-(difluoromethoxy)pyridin-4-yl]methyl]urea] are 55% and 1090 nM.
The corresponding values for `CC(F)(F)c1cc(CNC(=O)Nc2cccc(Cl)c2)ccn1` [Example 231, 1-(3-chlorophenyl)-3-[[2-(1,1-difluoroethyl)pyridin-4-yl]methyl]urea] are 51% and 800 nM.
`O=C(Nc1cccc(CF)c1)NC(CO)c1ccnc(OCC(F)(F)F)c1` (centres unmarked) [Example 232, 1-[3-(fluoromethyl)phenyl]-3-[2-hydroxy-1-[2-(2,2,2-trifluoroethoxy)pyridin-4-yl]ethyl]urea] gave a maximal response (Emax) of 47% and an EC50 of 250 nM.
Taken in the same sequence, the figures for `Cc1cccc(NC(=O)NC(CO)c2ccnc(OCC(F)(F)F)c2)c1` (centres unmarked) [Example 233, 1-[2-hydroxy-1-[2-(2,2,2-trifluoroethoxy)pyridin-4-yl]ethyl]-3-(3-methylphenyl)urea] were 68% and 130 nM.
`O=C(NCc1ccnc(OCC(F)(F)F)c1)NC1CC(C2CC2)C1` (centres unmarked) [Example 235, 1-(3-cyclopropylcyclobutyl)-3-[[2-(2,2,2-trifluoroethoxy)pyridin-4-yl]methyl]urea] registered an Emax of 88% and a concentration for a half-maximal effect (EC50) of 80 nM.
The corresponding values for `O=C(NCc1ccnc(OC(F)F)c1)NCC1(C(F)(F)F)CCC1` [Example 237, 1-[[2-(difluoromethoxy)pyridin-4-yl]methyl]-3-[[1-(trifluoromethyl)cyclobutyl]methyl]urea] are 54% and 160 nM.
Taken in the same sequence, the figures for `O=C(NCc1ccnc(OCC(F)(F)F)c1)N[C@@H]1C[C@@H]2[C@H](C1)C2(F)F` [Example 238, 1-[(1R,3s,5S)-6,6-difluoro-3-bicyclo[3.1.0]hexanyl]-3-[[2-(2,2,2-trifluoroethoxy)pyridin-4-yl]methyl]urea] were 79% and 60 nM.
The corresponding values for `O=C(NCc1ccnc(OC(F)F)c1)N[C@H]1CC[C@H](F)C1` [Example 239, 1-[[2-(difluoromethoxy)pyridin-4-yl]methyl]-3-[(1S,3S)-3-fluorocyclopentyl]urea] are 57% and 440 nM.
Take `O=C(Nc1ccc(F)c(F)c1)NC(CO)c1ccnc(OC(F)F)c1` (centres unmarked) [Example 240, 1-[1-[2-(difluoromethoxy)pyridin-4-yl]-2-hydroxyethyl]-3-(3,4-difluorophenyl)urea]: the Emax came out at 55% and the EC50 was determined as 300 nM.

The values above are taken from patent publication US20250074901A1, “NOVEL HETEROARYL COMPOUNDS” (ICAGEN, LLC, priority 2021, published 2025).
